Measured values published in patent US8734775B2, “Chemokine derived peptides that bind with chemokine receptor CXCR3 and uses for chronic wound and angiogenesis inhibition treatments” (University of Pittsburgh, priority 2011, dated 2014).

How the values were obtained:
Assay type in all cases: cell-based, human
[1] = tested on: PKA activity in HMEC-1 cells; assay: PKA activity assay in endothelial cells; conditions: IP-10dp 10 μM
Procedure: To further investigate the cAMP activation of PKA, a PKA assay experiment was conducted. As above, HMEC-1 cells were grown in complete growth media then further incubated in 0.5% dialyzed FBS MCDB 131 media for 24 hours. The cells were then stimulated with forskolin ([…]), and/or combinations of VEGF (100 ng/ml), IP-10 (200 ng/ml), and/or IP-10dp (10 μM) for 15, 30 and 60 minutes. The cells were lysed with an ice-cold hypotonic solution (50 mM Tris pH 7.4, 1 mM EDTA, 10 mg/ml aprotinin and 1 mM PMSF). The cells were incubated on ice for 30 minutes then centrifuged to remove the cell membranes. PKA activity was measured using a commercially available cAMP dependent protein kinase kit (Non-Radioactive Detection kit, from Promega Corp., of Madison, Wis.) according to the manufacturer's protocol. Absorbance was read at 570 nm with the solubilization buffer serving as a blank.

[2] = tested on: HMEC-1 cells transfected with CXCR3 siRNA; assay: Scratch assay in cells transfected with CXCR3 siRNA; conditions: CXCR3 knockdown; procedure of Experiment 2
Procedure: In the various experiments described below, to the extent not otherwise noted, CXCR3 siRNA transfection was preformed according to the procedure as previously described by Koh et al. (“Methods in Enzymology,” 2008, vol 443, p. 84), and summarized briefly as follows. HMEC-1 cells were plated in 6 well tissue culture plate at 4.0×10^5 cells/well in complete MCDB131 media and incubated overnight. The cells were ˜75% confluent. The media was removed and replaced with serum free Opti-Mem and incubated for 30 minutes. Dharmafect #4 was added to Opti-Mem to a final concentration of 2.5% (final volume […]) then incubated for 5 minutes at room temp. In parallel, CXCR3 siRNA was diluted in Opti-Mem to a final concentration of […] then incubated for 5 minutes at room temp. CXCR3 siRNA was a pool of equal concentration from Sigma and Santa Cruz. The Dharmafect solution was added to the CXCR3 siRNA pool and incubated for 20 minutes at room temp. […]
To determine whether IP-10dp inhibits endothelial cell motility, a conventional “scratch assay” was performed. […] Images were taken at time zero and 24 hours, and the relative distance traveled by the cells into the a cellular area was determined using MetaMorph. The HMEC-1 culture images were analyzed for the ability of the cells to migrate into a denuded area over a 24 hour period in the presence or absence of VEGF165. […]

[3] = tested on: HMEC-1 cells; assay: Tube formation on growth factor reduced Matrigel
Procedure: To determine whether the IP-10 peptide is able to inhibit tube formation, HMEC-1 cells were grown on growth factor reduced (“GFR”) Matrigel in the presence of VEGF165, IP-10 and/or IP-10dp and the cultures inspected and compared to asses the relative degree of tube formation according to the following procedure. GFR Matrigel 10 μl/well (μ-angiogenesis slide, Ibidi), was incubated for 15 minutes at 37° C. HMEC-1 cells (10,000 cells/well) were re-suspended in 1.0% FBS MDCB131 media containing VEGF (75 ng/ml), IP-10 (300 ng/ml) and IP-10dp (10 μM) and or anti-CXCR3 neutralizing antibody. Treated cells (1×10^4 cells/well) were added to 24-well culture plates coated with growth factor reduced Matrigel and incubated for 24 hours at 37° C. to allow tube formation.
The cells cultures were then imaged for tube formation using an Olympus IX70 microscope equipped with a Hammastu camera using MetaView™ software (Universal Imaging Corporation, Downington, Pa.). FIG. 4A is a grid of six labeled black and white photographs taken at this 24 hour point with 4× magnification showing the following representative cell cultures from upper left to lower right: a control culture having no treatment, a culture having treatment only with IP-10, a culture having treatment only with IP-10dp, a culture having treatment only with VEGF, a culture having treatment with combined VEGF and IP-10, and a culture having treatment with combined VEGF and IP-10dp.
Analysis of tube formation was preformed using MetaMorph (obtained from Universal Imaging Corporation, Downington, Pa.), and the results reported in the graph of FIG. 4 are shown as a percent of the no-treatment control. The data reported therein are of N=6 and normalized to no treatment (average±SEM), with *P<0.05. As shown by the graph, IP-10 peptide is able to inhibit tube formation. In particular, after incubation for 24 hours, the HMEC-1 cells cultures were able to form tubes in the presence or absence of VEGF165 (compare the photographic images in FIG. 4A).

**Q.** “PESKAIKNLLKAVSKEMSKRSP (IP-10dp; listed as Homo sapiens) [synthetic fragment of IP-10 comprising residues 78-98, the C-terminal α-helical domain]” was tested. Which “fold increase in PKA assay” value [1] did it give?
**A.** 2-3 fold

**Q.** And the “PKA activity in comparison to VEGF and untreated cells” value ([1]; 15, 30 and 60 minutes)?
**A.** significant increase in PKA activity

**Q.** And the “inhibition of VEGF-induced motility in CXCR3 siRNA-transfected cells” value [2]?
**A.** unable to inhibit VEGF-induced motility

**Q.** And the “tubes formed in the presence of VEGF165” value ([3]; IP-10dp 10 μM plus VEGF 75 ng/ml, 24 hours)?
**A.** significant reduction

**Q.** What about the “tubes formed compared to control” value ([3]; IP-10dp 10 μM, no VEGF, 24 hours) of the same sequence?
**A.** significant reduction in tubes formed

**Q.** What about the “inhibition of tube formation compared with full length IP-10” value ([3]; presence and absence of VEGF, IP-10dp 10 μM vs IP-10 300 ng/ml) of the same sequence?
**A.** slightly better
